In this assay the test system is P. falciparum 3D7 growth, pLDH absorbance. Briefly: P. falciparum 3D7 growth inhibition, dose response, strain 3D7 (AID 2305).

One may read the IC50 as the concentration that inhibits the measured activity by half. A high value points to lower potency. The compound `Cc1cccc2[nH]c(-c3cccc(-c4ccc(CNCc5ccc(S(C)(=O)=O)cc5)cc4)c3)nc12` gave an IC50 of 180 nM.

Take `CS(=O)(=O)c1ccc(-c2cnc(N)c(-c3ccc(O)cc3)c2)cc1`: the concentration for half-maximal inhibition (IC50) amounted to 1360 nM.

`Fc1ccc(N(c2nc(-c3cc(F)cc(C(F)(F)F)c3)cs2)C2CCNCC2)cc1` gave an IC50 of 960 nM.

For `COc1ccc(O)c(Cc2cnc3nc(N)[nH]c(=O)c3c2C)c1`, the IC50 amounted to 230 nM.

Regarding `O=C(Nc1ccc(OC2CCN(Cc3ccc(F)cc3)CC2)c(Cl)c1)c1ccc(F)cc1`, the IC50 stood at 190 nM.

`CCOC(=O)C1=C(C)NC2=C(C(=O)C(C(=O)OC)C(C)C2)C1c1cc(Br)c(OCC)c(OC)c1` (stereo not drawn) gave an IC50 of 700 nM.

Take `O=C(Nc1ccccc1Cl)c1cc2ccccc2cc1O`: the concentration for half-maximal inhibition (IC50) was 1010 nM.

In the case of `NS(=O)(=O)c1ccc(Nc2nccc(-c3c(-c4cccc(NC(=O)c5c(F)cccc5F)c4)nn4ccccc34)n2)cc1`, the IC50 was determined as 760 nM.

Regarding `O=C(Nc1cccc(-c2ccc(-c3nc4ccccc4[nH]3)cc2)c1)c1cnn2cccnc12`, the IC50 was 1060 nM.

Turning to `O=C(Nc1ccc(Cl)c(Cl)c1)Nc1ccccc1N1CCNCC1`, the IC50 turned out to be 710 nM.

Take `NC1CCN(Cc2ccc(-c3ccc(-c4nc5ccc(F)cc5[nH]4)s3)cc2)C1` (stereo not drawn): the half-inhibitory concentration (IC50) was found to be 650 nM.

Consider `O=c1[nH]c2ccc(Nc3nccc(NCCc4ccccc4)n3)cc2[nH]1`, for which the IC50 amounted to 1210 nM.

On to `NS(=O)(=O)c1cccc(-c2ccc3c(=O)[nH]cnc3c2)c1`, for which the IC50 was 950 nM.

Turning to `CCOC(=O)N1CCN(CCCCNc2c3ccc(Cl)cc3nc3ccc(OC)cc23)CC1`, the IC50 was determined as 120 nM.

The compound `Cc1ccc(NC(=O)c2cc(S(=O)(=O)NC(C)(C)C)ccc2C)nc1` came in with an IC50 of 760 nM.

With `FC(F)c1nc2ccccc2n1-c1nc(N2CCOCC2)nc(N2CCOCC2)n1`, the half-maximal inhibitory concentration (IC50) was found to be 760 nM.

`Cc1nc(C)c(-c2ccc(Oc3ccc(OC(F)(F)F)cc3)cc2)c(OC(=O)c2ccc(CN(C)C)cc2)c1Cl` came in with a half-inhibitory concentration (IC50) of 140 nM.

Consider `Cc1nnsc1C(=O)Nc1ccc(-c2cccc(-c3nc4c(C)cccc4[nH]3)c2)cc1`, for which the 50% inhibitory concentration (IC50) is 630 nM.

On to `N#Cc1cccc(CN2CCCN(Cc3cccc(C(=O)Nc4ccc(Cl)cc4)c3)CC2)c1`, for which the IC50 was 1180 nM.

The compound `c1ccc(-c2cc(NCCCCNc3cc(-c4ccccc4)nc4ccccc34)c3ccccc3n2)cc1` yielded an IC50 of 130 nM.

In turn, `COCC(C)n1c(SCC(=O)Nc2cc(C(F)(F)F)ccc2Cl)nc2ccccc2c1=O` (stereo not drawn) registered an IC50 of 130 nM.

For the compound `CCN(CC)CCCC(C)Nc1ccnc2ccc(-c3ccccc3)cc12` (stereo not drawn), the IC50 worked out at 650 nM.

`COc1ccc(CNCCc2cccs2)cc1-c1ccc(OC)c(S(=O)(=O)NCCN2CCCC2)c1` had a concentration for half-maximal inhibition (IC50) of 1410 nM.

`COc1cc(Cc2cnc(N)nc2N)cc(OC(C)C)c1OC` displayed an IC50 of 1040 nM.

Compound `CC(C)(C)c1ccc(N2C(N)=NC(N)=NC2(C)C)cc1Cl` displayed a 50% inhibitory concentration (IC50) of 10 nM.

`CCc1c(CCNCC/C=C/CCNCCc2ccc(OC)c(OC)c2CC)ccc(OC)c1OC`: the IC50 is 770 nM.

`CCOc1cc2c(cc1OCC)C(c1cc(OC)c(O)cc1Cl)NCC2` (stereo not drawn) registered an IC50 of 750 nM.

`CCCCOc1ccc(C(=O)C(CCC(CNC(C)(C)C)C(=O)c2ccc(OCCCC)cc2)CNC(C)(C)C)cc1` (stereo not drawn) returned a half-inhibitory concentration (IC50) of 1020 nM.

In turn, `CC(=O)Nc1ccc(CN(Cc2ccc(F)cc2)Cc2cccc(Oc3ccccc3)c2)cc1` displayed an IC50 of 940 nM.

On to `CNCCNCc1cccc(-c2ccc(-c3nc4ccc(C(F)(F)F)cc4[nH]3)cc2)c1`, for which the concentration for half-maximal inhibition (IC50) came out at 690 nM.

Regarding `Cc1cnc(N2CCN(CC3CCN(C)CC3)CC2)nc1Oc1ccc(-n2ccnc2)cc1`, the IC50 came out at 720 nM.

For the compound `N=C1C=C(N)C(=O)c2ccccc21`, the half-inhibitory concentration (IC50) was determined as 1050 nM.

With `CC[C@H]1CN2CC[C@@H]1C[C@H]2[C@H](O)c1cc(N2CCCC(C)(C)C2)nc2ccc(OC)cc12`, the half-maximal inhibitory concentration (IC50) came out at 340 nM.

`CC(=O)Nc1ccc(C(=O)Nc2cccc(-c3cccc(-c4nc5ccc(C(F)(F)F)cc5[nH]4)c3)c2)cn1`: the IC50 worked out at 70 nM.

In turn, `O=C(CCc1cnc[nH]1)Nc1cccc(-c2ccc(-c3nc4ccccc4[nH]3)cc2)c1` came in with an IC50 of 650 nM.

For the compound `CC(C)C[C@H](NC(=O)c1cc2ccccc2s1)C(=O)N[C@H]1CCN(Cc2ccc(OC[C@@H]3CCCN3C)c3ccccc23)C1`, the IC50 turned out to be 1160 nM.

`COc1cc(Cc2cnc(N)nc2N)cc(OCCCS(=O)(=O)O)c1OC`: the 50% inhibitory concentration (IC50) worked out at 1170 nM.

`CCc1cn2c3c(cc(C(=O)N[C@@H](Cc4ccccc4)[C@H](O)CNC(C)(C)c4cccc(OC)c4)cc13)N(C)S(=O)(=O)C2` had an IC50 of 60 nM.

`Oc1ccccc1-c1nc2cccnc2n1CCc1cccc(C(F)(F)F)c1`: the half-inhibitory concentration (IC50) was determined as 1270 nM.

On to `COc1cccc(CNC[C@@H](O)[C@H](Cc2ccccc2)NC(=O)c2cc(N3CCCC3=O)c3[nH]cc(C(C)C)c3c2)c1`, for which the IC50 was found to be 530 nM.

Turning to `COc1ccc2ccc(F)c(CCN3CCC(NCc4cc5c(cn4)OCCO5)CC3)c2n1`, the IC50 came out at 840 nM.

`CN(C)CCOC(=O)C1(O)CCC2CC1C2(C)C` (stereo not drawn) showed a half-maximal inhibitory concentration (IC50) of 980 nM.

For `Nc1oc2c(CN3CCCCCC3)c(O)ccc2c(=O)c1-c1nc2ccccc2s1`, the IC50 was determined as 520 nM.

Values taken from PubChem BioAssay AID2305 (GlaxoSmithKline (GSK), 2010).
